Values after ≈ are worked out from the molar mass of the structure shown. Residues, ends and D or L forms follow the SMILES beside them. *: point of attachment. Cbz = O=C(OCc1ccccc1)*
Key:
RAW264.7 [1] = test: Antiinflammatory activity in mouse RAW264.7 cells assessed as inhibition of IFNgamma-induced NO production after 5 mins by Greiss method; format: functional, cell-based; details: RAW264.7, 5 min
RAW264.7 [2] = test: Antiinflammatory activity in mouse RAW264.7 cells assessed as inhibition of LPS-induced NO production after 5 mins by Greiss method; format: functional, cell-based; details: RAW264.7, 5 min

Compound | IC50 (RAW264.7 [1]) [µg/mL] | IC50 (RAW264.7 [2]) [µg/mL]
C=C(C)[C@]1(O)CC[C@]2(C)CC(=O)C=C(C)[C@H]2C1 | 11.6 (≈ 49.6 µM) | 11.6 (≈ 49.6 µM)
C=C(C)[C@@H]1CC[C@@]2(C)[C@H](O)CC[C@](C)(O)[C@@H]2C1 (racemic) | 13.5 (≈ 56.8 µM) | 13.5 (≈ 56.8 µM)
C=C(C)[C@]1(O)CC[C@@]2(C)CCC(=O)[C@@]3(C)O[C@@]23C1 [OXYPHYLLANENE D] | 9.85 (≈ 39.3 µM) | 9.85 (≈ 39.3 µM)
C=C(C)[C@]1(O)CC[C@@]2(C)CCC(=O)C(C)=C2C1 | 11.4 (≈ 48.6 µM) | 11.4 (≈ 48.6 µM)
C[C@@]12CCC[C@](C)(O)C1=CC(=O)CC2 [TEUHETENONE A] | 12.9 (≈ 66.6 µM) | 12.9 (≈ 66.6 µM)
CC(C)C[C@@H](C=O)NC(=O)[C@H](CC(C)C)NC(=O)[C@H](CC(C)C)NC(=O)OCc1ccccc1 [MG-132] (Cbz-Leu-Leu-Leu-aldehyde) | 0.17 (≈ 0.357 µM) | 0.17 (≈ 0.357 µM)

Further lines, results first:

IC50 (RAW264.7 [1]) [µg/mL] | IC50 (RAW264.7 [2]) [µg/mL] | Compound
11.4 (≈ 48.5 µM) | 11.4 (≈ 48.5 µM) | C=C(C)[C@@]1(O)CC[C@]2(C)CC(=O)C=C(C)[C@H]2C1 [TEUCRENONE]
13.5 (≈ 57.2 µM) | 13.5 (≈ 57.2 µM) | C=C1[C@@H](O)CC[C@]2(C)CC[C@](O)(C(=C)C)C[C@@H]12 (relative stereo)
12.5 (≈ 53.4 µM) | 12.5 (≈ 53.4 µM) | C=C(C)[C@@H]1CC[C@@]2(C)CCC(=O)C(C)=C2[C@@H]1O
13.9 (≈ 55.7 µM) | 13.9 (≈ 55.7 µM) | CC1=C2C=C(C(C)(O)CO)CC[C@]2(C)CCC1=O (stereo partly drawn) [OXYPHYLLANENE F]
11 (≈ 47 µM) | 11 (≈ 47 µM) | CC(=O)[C@]12CC[C@@]3(C)CCC(=O)C(C)=C3[C@H]1O2 [OXYPHYLLANENE C]
13.3 (≈ 52.6 µM) | 13.3 (≈ 52.6 µM) | CC1=C2C[C@H](C(C)(O)CO)CC[C@@]2(C)CCC1=O (stereo partly drawn)
12 (≈ 57 µM) | 12 (≈ 57 µM) | C[C@@]12CCC(=O)C=C1[C@@](C)(O)[C@H](O)CC2 [OXYPHYLLENONE A]
12.1 (≈ 51.8 µM) | 12.1 (≈ 51.8 µM) | C=C(C)[C@@H]1CC[C@]2(C)C(=C(C)C(=O)C[C@H]2O)C1 [LIGUCYPERONOL]

From ChEMBL document CHEMBL1949564, “Inhibitory activity of eudesmane sesquiterpenes from Alpinia oxyphylla on production of nitric oxide” (Bioorg Med Chem Lett, 2012)
